EP1581471B9, “CYCLOPENTENONE DERIVATIVES FOR CANCER THERAPY” (Dabur Research Foundation, priority 2002, dated 2004)
Values after ≈ are worked out from the molar mass of the structure shown.

Legend:
VEGF = VEGF levels in ECV304 endothelial cells (ELISA); format: cell-based, Human; conditions: 5ug/ml, 4 hours
Description: Human endothelial cells (ECV304) were plated at the density of 8-10 x10^5 cells per 2 ml in a six well plate. After an overnight incubation of cells at 37°C, cyclopentenone derivatives at a concentration of 5ug/ml was added to the wells. The untreated wells served as controls. The plates were incubated for 4 hours at 37°C. The medium was collected from all the wells (control and treated) and spun down at 2000 r.p.m to remove the cellular material. The supernatant was collected and used for ELISA (Quantikine human VEGF, R&D Systems). The assay employs the quantitative sandwich enzyme immunoassay technique. A monoclonal antibody specific for VEGF has been pre-coated onto a microplate. Standards and samples were pipetted into the wells and VEGF present was bound by the immobilized antibody. After washing away the unbound substances, an enzyme-linked polyclonal antibody specific for VEGF was added to the wells. Following a wash to remove any unbound antibody-enzyme reagent, a substrate solution was added to the wells and color developed in proportion to the amount of VEGF bound in the initial step. The optical density of each well was determined within 30 minutes using a microplate reader set to 450nm and reference wavelength at 540nm. The VEGF levels were inhibited by the addition of cyclopentenone derivatives in vitro.

Caspase-3 = Caspase-3 induction in KB cells (colorimetric substrate DEVD-pNA); format: cell-based, Human; conditions: 5ug/ml
Description: Human squamous cell carcinoma (KB) were plated in a 25 cm^2 flask. When cultures achieved confluence, the cyclopentenone derivative of structure 20 was added to the cells. The final concentration of derivative of the structure 20 in the flask was 5ug/ml. The untreated wells served as controls. The cells were incubated with the drug for 2 different time points of 6 and 16 hours at 37°C. The cells were collected by centrifugation at 2000 r.p.m. for 10 minutes. The supernatant was gently removed and discarded while Lysis Buffer was added to the cell pellet (25ul of lysis buffer per […]). The cell lysate was incubated on ice for 10 minutes and centrifuged at 10,000-x g for 1 minute. The supernatant was transferred to a new tube and kept on ice. 50ul of the cell lysate was added in a 96 well plate. To this was added 2x Reaction Buffer. Prior to using reaction buffer, 10ul of fresh DTT stock per 1 ml of 2x Reaction Buffer was added. To each well 5ul of Caspase-3 colorimetric substrate (DEVD-pNA) was added. The plate was incubated for 1-2 hours at […]. and read at 405nm.
The level of caspase enzymatic activity in the cell lysate is directly proportional to the absorbance at 405nm. […]

PTC tumor xenografts = assay: In vivo anti-tumor activity on PTC tumor xenografts; design: species or system Balb/c athymic mice; conditions: intravenously 0.5 mg/100 µL once a day for 14 days, day 23, compared to controls
Description: PTC tumor xenografts were grown in Balb/c athymic mice by subcutaneous inoculation of a single cell suspension of PTC cells (15 X 10^6 cells/100 µL). The tumor bearing animals were divided into 2 groups of three animals each including one group comprising untreated control animals. Treatment with compound of formula no. 49 was initiated when the average tumor volumes, as measured using a vernier caliper, were […]. Compound of formula no. 49 was administered intravenously to the assigned group of tumor bearing animals at a dose of 0.5 mg/100 µL once a day and the treatment was continued for a period of 14 days.
The antitumor activity of the compound was monitored by measuring tumor volumes every fourth day using the formula W*W*L*0.4 (W = smaller diameter, L = larger diameter). The percentage inhibition of tumor growth was calculated using the formula (1- tumor volume-treated / tumor volume-control) * 100. […] Compound of formula no. […] The percentage inhibition of tumor growth caused compound of formula no. 49 as compared to controls on day 23 was 45.8%.

tubulin = tubulin polymerization in vitro (absorbance at 340 nm); format: biochemical; conditions: tubulin 1mg/ml, 37°C, pH 6.9; read-out: IC50 values (uM) for inhibition of Tubulin Polymerization
Description: The cyclopentenone derivatives were checked for their effects on tubulin polymerization in vitro. Briefly, the tubulin assembly reaction was performed at 37°C in buffer containing 80 mM PIPES, 1mM EGTA, 1.0 mM GTP and 1mM MgCl2 (pH 6.9) at a tubulin concentration of 1mg/ml in the presence or absence of the cyclopentenone derivatives. The final concentration of the cyclopentenone derivatives in the reaction mixture varied from 1-5uM. The derivatives were dissolved in 0.1% DMSO. The control experiments were carried out with 0.1% DMSO. The tubulin polymerization was followed by measurement of the absorbance of the solution at 340 nm every 30 seconds. […] Thus the cyclopentenone derivatives mediated their observed anticancer activities by tubulin depolymerization.

PTC = assay: three day MTT cytotoxicity assay; format: cell-based, human; conditions: PTC (colon), 72 hours
Description: (§1) A number of the cyclopentenone derivatives were tested for cytotoxicity against 9 human tumor cell lines. Briefly, a three day MTT cytotoxicity assay was performed, which is based on the principle of uptake of MTT (3-(4,5-dimethylthiazol-2-yl)-2,5-diphenyl tetrazolium bromide), a tetrazolium salt, by the metabolically active cells where it is metabolized by active mitochondria into a blue colored formazan product that is read spectrophotometrically. MTT was dissolved in phosphate buffered saline with a pH of 7.4 to obtain an MTT concentration of 5mg/ml; the resulting mixture was filtered through a 0.22 micron filter to sterilize and remove a small amount of insoluble residue. For each type of tumor cell, 10000 to 15000 cells were seeded in a 96-well culture plate and incubated with the individual cyclopentenone derivatives in a CO2 incubator for a total of 72 hours. Control cells not treated with the cyclopentenone derivatives were similarly incubated. The assay was terminated by adding 100 ug (20 ul) of MTT to each well, then incubating for additional one hour, and finally adding 50 ul of 10% SDS-0.01N HCl to each well to lyse the cells and dissolve formazan. After incubating for one hour, the plate was read spectrophotometrically at 540 nm and the percentage of cytotoxicity calculated using the following formula: Cytotoxicity percentage = 100 × [1-(X/R1)], [formula] where X = (absorbance of treated sample at 540 nm) - (absorbance of blank at 540 nm) R1 = absorbance of control sample at 540 nm.
(§2) The ED50 Values of the cytotoxicity defined as the concentration at which 50 % of the cells are killed in vitro was calculated for each cell line treated with each of the cyclopentenone derivatives.
(§3) The cell lines are PTC (all colon), MOLT-4 (leukemia), SW620 […], DU145 (prostate), KB (oral squamous cell), L132 (lung), MIAPaCa2 (Pancreas), Hep2, (larynx), PA-1 (ovary), HuTu80 (duodenum), ECV 304 (endothelial), and 293 (kidney).

PA-1 = assay: three day MTT cytotoxicity assay; format: cell-based, human; conditions: PA-1 (ovary), 72 hours
Description: as §1, §2, §3

DU145 = assay: three day MTT cytotoxicity assay; format: cell-based, human; conditions: DU145 (prostate), 72 hours
Description: as §1, §2, §3

SW620 = assay: three day MTT cytotoxicity assay; format: cell-based, human; conditions: 72 hours
Description: as §1, §2, §3

MIAPaCa2 = assay: three day MTT cytotoxicity assay; format: cell-based, human; conditions: MIAPaCa2 (Pancreas), 72 hours
Description: as §1, §2, §3

MOLT-4 = assay: three day MTT cytotoxicity assay; format: cell-based, human; conditions: MOLT-4 (leukemia), 72 hours
Description: as §1, §2, §3

L132 = assay: three day MTT cytotoxicity assay; format: cell-based, human; conditions: L132 (lung), 72 hours
Description: as §1, §2, §3

Hep2 = assay: three day MTT cytotoxicity assay; format: cell-based, human; conditions: Hep2 (larynx), 72 hours
Description: as §1, §2, §3

ECV 304 = assay: three day MTT cytotoxicity assay; format: cell-based, human; conditions: ECV 304 (endothelial), 72 hours
Description: as §1, §2, §3

KB = assay: three day MTT cytotoxicity assay; format: cell-based, human; conditions: KB (oral squamous cell), 72 hours
Description: as §1, §2, §3

293 = assay: three day MTT cytotoxicity assay; format: cell-based, human; conditions: 293 (kidney), 72 hours
Description: as §1, §2, §3

HuTu80 = assay: three day MTT cytotoxicity assay; format: cell-based, human; conditions: HuTu80 (duodenum), 72 hours
Description: as §1, §2, §3

COc1ccc(C2=C(c3cc(OC)c(OC)c(OC)c3)C(=NO)C(O)C2)cc1 (stereo not shown) [Compound 49]
Percent Reduction in VEGF (VEGF): 38.6 ± 1.9%
Percent Induction of Caspase-3 6 hours (Caspase-3): 26.7 ± 2.8%
Percent Induction of Caspase-3 16 hours (Caspase-3): 31.9 ± 3.2%
percentage inhibition of tumor growth (PTC tumor xenografts): 45.8%
IC50 (tubulin): 2.3 ± 0.5 µM
ED50 (ug/ml) PTC (PTC): <1.0 µg/mL
ED50 (ug/ml) PA1 (PA-1): <1.0 µg/mL
ED50 (ug/ml) DU145 (DU145): >100 µg/mL
ED50 (ug/ml) SW620 (SW620; SW620 (ovary)): <1.0 µg/mL
ED50 (ug/ml) MiaPaca (MIAPaCa2): 24 ± 3.5 µg/mL (≈ 62.3 µM)
ED50 (ug/ml) MOLT4 (MOLT-4): <1.0 µg/mL
ED50 (ug/ml) L132 (L132): < 1.0 µg/mL
ED50 (ug/ml) Hep2 (Hep2): <1.0 µg/mL
ED50 (ug/ml) ECV 304 (ECV 304): >100 µg/mL
ED50 (ug/ml) KB (KB): <1.0 µg/mL

COc1ccc(C2=C(c3cc(OC)c(OC)c(OC)c3)C(=O)CC2O)cc1O (stereo not shown) [Compound 39]
Percent Reduction in VEGF (VEGF): 21.9 ± 1.5%
Percent Induction of Caspase-3 6 hours (Caspase-3): 12.8 ± 0.2%
Percent Induction of Caspase-3 16 hours (Caspase-3): 17.0 ± 1.5%
IC50 (tubulin): 1.4 ± 0.6 µM
ED50 (ug/ml) PTC (PTC): 78 ± 4.0 µg/mL (≈ 202 µM)
ED50 (ug/ml) PA1 (PA-1): <1 µg/mL
ED50 (ug/ml) DU145 (DU145): 8 ± 1.5 µg/mL (≈ 20.7 µM)
ED50 (ug/ml) SW620 (SW620; SW620 (colon)): <1 µg/mL
ED50 (ug/ml) MiaPaca (MIAPaCa2): >100 µg/mL
ED50 (ug/ml) MOLT4 (MOLT-4): 62.5 ± 5.0 µg/mL (≈ 162 µM)
ED50 (ug/ml) L132 (L132): <1 µg/mL
ED50 (ug/ml) 293 293: >100 µg/mL
ED50 (ug/ml) Hep2 (Hep2): <1 µg/mL
ED50 (ug/ml) HuTu80 (HuTu80): 1.5 ± 0.1 µg/mL (≈ 3.88 µM)
ED50 (ug/ml) ECV 304 (ECV 304): >100 µg/mL
ED50 (ug/ml) KB (KB): <1 µg/mL
